Measurements published in US10428082B2, “Triazole derivatives of melampomagnolide B and methods of use thereof” (BioVentures, LLC, priority 2016, dated 2019).
Read-outs that look alike come from different tables or passages of the source.

How the values were obtained:
[1] = system: M9 ENL1 cell line; test: Anti-leukemic activity, Annexin V/7-AAD flow cytometry; format: cell-based; details: 24 h of drug exposure, read-out: M9ENL1 (EC50)
Method: The newly synthesized triazole derivatives of melampomagnolide B were screened for anti-leukemic activity against M9 ENL1 and primary AML cell lines; the latter were obtained with informed consent from human patients. Evaluations were performed after 24 h of drug exposure using flow cytometric analysis by labeling with Annexin V and 7-aminoactinomycin D (7-AAD) to delineate apoptotic cell populations. In all experiments PTL was included as a reference control.

[2] = system: 786-0; test: NCI 60 growth inhibition; format: cell-based, human; details: 786-0, Renal Cancer
Method: (§1) The above triazole derivatives of melampomagnolide B were evaluated for growth inhibitory properties against an NCI panel of 60 human cancer cell lines derived from nine human cancer cell types, grouped into disease sub-panels that represent leukemia, lung, colon, central nervous system (CNS), melanoma, renal, ovary, breast, and prostate cancer cells. Growth inhibitory (GI50) effects were measured as a function of the variation of optical density as a percentage of control.

[3] = system: ACHN; test: NCI 60 growth inhibition; format: cell-based, human; details: Renal Cancer
Method: as §1

[4] = system: CAKI-1; test: NCI 60 growth inhibition; format: cell-based, human; details: CAKI-1, Renal Cancer
Method: as §1

[5] = system: DU-145; test: NCI 60 growth inhibition; format: cell-based, human; details: DU-145, Prostate Cancer
Method: as §1

[6] = system: HCC-2998; test: NCI 60 growth inhibition; format: cell-based, human; details: HCC-2998, Colon Cancer
Method: as §1

[7] = system: HCT-116; test: NCI 60 growth inhibition; format: cell-based, human; details: HCT-116, Colon Cancer
Method: as §1

[8] = system: HCT-15; test: NCI 60 growth inhibition; format: cell-based, human; details: HCT-15, Colon Cancer
Method: as §1

[9] = system: HL-60(TB); test: NCI 60 growth inhibition; format: cell-based, human; details: Leukemia
Method: as §1

[10] = system: HS 578T; test: NCI 60 growth inhibition; format: cell-based, human; details: Breast Cancer
Method: as §1

[11] = system: IGROV1; test: NCI 60 growth inhibition; format: cell-based, human; details: IGROV1, Ovarian Cancer
Method: as §1

[12] = system: K-562; test: NCI 60 growth inhibition; format: cell-based, human; details: K-562, Leukemia
Method: as §1

[13] = system: LOX IMVI; test: NCI 60 growth inhibition; format: cell-based, human; details: Melanoma
Method: as §1

[14] = system: M14; test: NCI 60 growth inhibition; format: cell-based, human; details: M14, Melanoma
Method: as §1

[15] = system: MALME-3M; test: NCI 60 growth inhibition; format: cell-based, human; details: Melanoma
Method: as §1

[16] = system: MCF7; test: NCI 60 growth inhibition; format: cell-based, human; details: MCF7, Breast Cancer
Method: as §1

[17] = system: MDA-MB-231/ATCC; test: NCI 60 growth inhibition; format: cell-based, human; details: Breast Cancer
Method: as §1

[18] = system: MDA-MB-435; test: NCI 60 growth inhibition; format: cell-based, human; details: MDA-MB-435, Melanoma
Method: as §1

[19] = system: MDA-MB-468; test: NCI 60 growth inhibition; format: cell-based, human; details: MDA-MB-468, Breast Cancer
Method: as §1

[20] = system: MOLT-4; test: NCI 60 growth inhibition; format: cell-based, human; details: MOLT-4, Leukemia
Method: as §1

[21] = system: NCI-H226; test: NCI 60 growth inhibition; format: cell-based, human; details: NCI-H226, Non-Small Cell Lung Cancer
Method: as §1

[22] = system: NCI-H460; test: NCI 60 growth inhibition; format: cell-based, human; details: NCI-H460, Non-Small Cell Lung Cancer
Method: as §1

[23] = system: NCI-H522; test: NCI 60 growth inhibition; format: cell-based, human; details: NCI-H522, Non-Small Cell Lung Cancer
Method: as §1

[24] = system: NCI/ADR-RES; test: NCI 60 growth inhibition; format: cell-based, human; details: Ovarian Cancer
Method: as §1

[25] = system: PC-3; test: NCI 60 growth inhibition; format: cell-based, human; details: PC-3, Prostate Cancer
Method: as §1

[26] = system: RPMI-8226; test: NCI 60 growth inhibition; format: cell-based, human; details: RPMI-8226, Leukemia
Method: as §1

[27] = system: SF-268; test: NCI 60 growth inhibition; format: cell-based, human; details: SF-268, CNS Cancer
Method: as §1

[28] = system: SF-539; test: NCI 60 growth inhibition; format: cell-based, human; details: SF-539, CNS Cancer
Method: as §1

[29] = system: SK-MEL-2; test: NCI 60 growth inhibition; format: cell-based, human; details: SK-MEL-2, Melanoma
Method: as §1

[30] = system: SK-MEL-5; test: NCI 60 growth inhibition; format: cell-based, human; details: SK-MEL-5, Melanoma
Method: as §1

[31] = system: SK-OV-3; test: NCI 60 growth inhibition; format: cell-based, human; details: SK-OV-3, Ovarian Cancer
Method: as §1

[32] = system: SN12C; test: NCI 60 growth inhibition; format: cell-based, human; details: Renal Cancer
Method: as §1

[33] = system: SNB-19; test: NCI 60 growth inhibition; format: cell-based, human; details: SNB-19, CNS Cancer
Method: as §1

[34] = system: SR; test: NCI 60 growth inhibition; format: cell-based, human; details: Leukemia
Method: as §1

[35] = system: SW-620; test: NCI 60 growth inhibition; format: cell-based, human; details: SW-620, Colon Cancer
Method: as §1

[36] = system: U251; test: NCI 60 growth inhibition; format: cell-based, human; details: U251, CNS Cancer
Method: as §1

[37] = system: UO-31; test: NCI 60 growth inhibition; format: cell-based, human; details: UO-31, Renal Cancer
Method: as §1

C=C1C(=O)O[C@H]2[C@H]1CC/C(Cn1cc(CCC)nn1)=C\CC[C@@]1(C)O[C@@H]21 [JVM 4-16, (1aR,7aS,10aS,10bS,E)-1a-Methyl-8-methylene-5((4-propyl-1H-1,2,3-triazol-1-yl)methyl)-2,3,6,7,7a,8,10a,10b-octahydrooxireno[2′,3′:9,10]cyclodeca[1,2-b]furan-9(1aH)-one]
EC50 ([1]; M9-ENL1, 24 h): 5.5 µM
GI50 ([2]; Homo sapiens, Table 2): 11.3 µM
GI50 ([3]; Homo sapiens, Table 2): 3.81 µM
GI50 ([4]; Homo sapiens, Table 2): 3.91 µM
GI50 ([5]; Homo sapiens, Table 2): 4.32 µM
GI50 ([6]; Homo sapiens, Table 2): 15.1 µM
GI50 ([7]; Homo sapiens, Table 2): 3.98 µM
GI50 ([8]; Homo sapiens, Table 2): 2.9 µM
GI50 ([9]; Homo sapiens, HL-60(TB), Table 2): 3.53 µM
GI50 ([10]; Homo sapiens, Table 2): 23.4 µM
GI50 ([11]; Homo sapiens, IGROV-1, Table 2): 4.63 µM
GI50 ([12]; Homo sapiens, K562, Table 2): 3.96 µM
GI50 ([13]; Homo sapiens, Table 2): 3.91 µM
GI50 ([14]; Homo sapiens, Table 2): 3.99 µM
GI50 ([15]; Homo sapiens, Table 2): 4.7 µM
GI50 ([16]; Homo sapiens, Table 2): 3.35 µM
GI50 ([17]; Homo sapiens, Table 2): 4.22 µM
GI50 ([18]; Homo sapiens, Table 2): 10.4 µM
GI50 ([19]; Homo sapiens, Table 2): 3.65 µM
GI50 ([20]; Homo sapiens, Table 2): 5.54 µM
GI50 ([21]; Homo sapiens, Table 2): 12.6 µM
GI50 ([22]; Homo sapiens, Table 2): 21.2 µM
GI50 ([23]; Homo sapiens, Table 2): 3.06 µM
GI50 ([24]; Homo sapiens, Table 2): 15.2 µM
GI50 ([25]; Homo sapiens, Table 2): 14.9 µM
GI50 ([26]; Homo sapiens, Table 2): 5.52 µM
GI50 ([27]; Homo sapiens, Table 2): 13.7 µM
GI50 ([28]; Homo sapiens, Table 2): 8.87 µM
GI50 ([29]; Homo sapiens, Table 2): 16.3 µM
GI50 ([30]; Homo sapiens, Table 2): 15.3 µM
GI50 ([31]; Homo sapiens, Table 2): 26 µM
GI50 ([32]; Homo sapiens, Table 2): 12.1 µM
GI50 ([33]; Homo sapiens, Table 2): 18.8 µM
GI50 ([34]; Homo sapiens, Table 2): 2.88 µM
GI50 ([35]; Homo sapiens, Table 2): 4.23 µM
GI50 ([36]; Homo sapiens, U-251, Table 2): 14.1 µM
GI50 ([37]; Homo sapiens, Table 2): 11.1 µM

C=C1C(=O)O[C@H]2[C@H]1CC/C(Cn1cc(-c3ccsc3)nn1)=C\CC[C@@]1(C)O[C@@H]21 [JVM 4-53]
EC50 [1]: 2.7 µM
GI50 ([2]; Table 3): 1.76 µM
GI50 ([3]; Table 3): 1.32 µM
GI50 ([4]; Table 3): 1.06 µM
GI50 ([5]; Table 3): 1.43 µM
GI50 ([6]; Table 3): 1.84 µM
GI50 ([7]; Table 3): 1.16 µM
GI50 ([8]; Table 3): 1.11 µM
GI50 ([9]; HL-60 (TB), Table 3): 1.91 µM
GI50 ([10]; Table 3): 2.82 µM
GI50 ([11]; Table 3): 1.92 µM
GI50 ([12]; Table 3): 2.51 µM
GI50 ([13]; Table 3): 1.28 µM
GI50 ([14]; Table 3): 1.93 µM
GI50 ([15]; Table 3): 1.61 µM
GI50 ([16]; Table 3): 1.68 µM
GI50 ([17]; Table 3): 1.75 µM
GI50 ([18]; Table 3): 1.85 µM
GI50 ([19]; Table 3): 1.28 µM
GI50 ([20]; Table 3): 2.59 µM
GI50 ([21]; Table 3): 2.09 µM
GI50 ([22]; Table 3): 4.71 µM
GI50 ([23]; Table 3): 1.39 µM
GI50 ([24]; Table 3): 3.79 µM
GI50 ([25]; Table 3): 4.21 µM
GI50 ([26]; Table 3): 2.45 µM
GI50 ([27]; Table 3): 2.53 µM
GI50 ([28]; Table 3): 1.8 µM
GI50 ([29]; Table 3): 2.27 µM
GI50 ([30]; Table 3): 1.83 µM
GI50 ([31]; Table 3): 17.4 µM
GI50 ([32]; Table 3): 2.45 µM
GI50 ([33]; Table 3): 9.49 µM
GI50 ([34]; Table 3): 0.56 µM
GI50 ([35]; Table 3): 1.32 µM
GI50 ([36]; Table 3): 2.5 µM
GI50 ([37]; Table 3): 1.35 µM
